From patent US12590057B2, “Crystalline complexes” (Theracryf PLC, priority 2020, dated 2026)

Tests used:
Format in all cases: physicochemical
[1] = Equilibrium solubility in biorelevant media (shake flask); set-up: Equilibrium solubility, Mean Conc: unit not given here; conditions: for equilibrium solubility in words: 0.1 M HCl and FaSSIF media; for Equilibrium solubility, Mean Conc: 37° C.
Protocol: The equilibrium solubility of samples of Form 1 (batch ref […]-0004-S-8002) and Form 3 (Example 5.4.1 (batch ref, 491PAL22; A-19-0132)) in 0.1M HCl and FaSSIF media at 37° C. was carried out using the shake flask method. Samples were taken at 4 hours and 24 hours and centrifuged for 5 minutes at 15,000 rpm. The supernatant was removed and diluted with appropriate solvent prior to HPLC analysis of the parent concentrations.

[2] = KF water content of stability samples; conditions: for KF water content: Duma bottles without desiccant
Protocol: The water content of each sample was measured on a Metrohm 874 Oven Sample Processor at 150° C. with 851 Titrano Coulometer using Hydranal Coulomat AG oven reagent and nitrogen purge. Weighed solid samples were introduced into a sealed sample vial. Approximately 10 mg of sample was used per titration and duplicate determinations were made. […] Data collection and analysis were performed using Tiamo software.
The water content of samples of Form 1 (batch ref. LS19-0004-3-8002), Form 3 prepared by minimally-agitated drying ([…]; batch ref. 491-PAL-18) and Form 3 prepared by continuously-agitated filter drying (Example 5B trial 5; batch ref. 00173-005) was analysed by KF at the start of the stability study (initial) and after 2, 4 and 8 weeks storage in 60 ml Duma® bottles fitted with 45 mm Duma® caps (without desiccant) at 25° C./60% RH—see Table 16;
In a separate study, samples of Form 3 (Example 5.3; batch ref. 491-PAL-18) having an initial water content by KF of 2.3% w/w were tested for water content at various time points after storage double bagged in a HDPE bottle under various conditions as shown in Table 17.

[3] = Typical water content of the crystalline forms
Protocol: The water content of a sample can be determined by any suitable means as will be apparent to one of skill in the art. In one embodiment, the water content is determined by Karl-Fischer titration. In one embodiment, the water content is determined by thermogravimetric analysis (TGA). In one embodiment, the water content is determined by gravimetric vapour sorption (GVS). After formation of the crystalline complex according to the invention, the water content may be as low as 1-3% w/w. However, after exposure of the complex to ambient conditions (25° C., 40% RH) the material typically equilibrates (e.g. over a period of 3-7 days) to a water content of up to 5-7% w/w. It has been found, however, that Form 3, once equilibrated to 5-7% w/w water, maintains physical form at 60% RH making it unexpectedly stable over the 0% and 60% humidity range.

[4] = Variable humidity XRPD (VH-XRPD) at 25° C.
Text: Non-ambient conditions: XRPD diffractograms were collected on a PANalytical Empyrean diffractometer using Cu Kα radiation (45 kV, 40 mA) in reflection geometry. The instrument is fitted with an Anton Paar CHC plus^+ stage fitted with graphite/Kapton windows and equipped with air cooling coupled with a proUmid MHG32 Modular Humidity Generator or a low vacuum pump system using an Edwards RV3 pump. A programmable divergence slit (in automatic mode), with a 10 mm fixed incident beam mask, Ni filter and 0.04 rad Soller slits were used on the incident beam. A PIXcel^3D detector, placed on the diffracted beam, was fitted with a programmable anti-scatter slit (in automatic mode) and 0.04 rad Soller slits. The software used for data collection was X'Pert Data Collector and the data analysed and presented using Diffrac Plus EVA or Highscore Plus. For variable humidity (VH-XRPD) experiments the samples were prepared and analysed in an Anton Paar chromed low-profile sample holder with silicon wafer insert. The measurement parameters are as per the standard screening data collection method (detailed above). For all variable humidity XRPD experiments, a pattern was recorded every hour. […] The Form 1 sample was loaded into the VH chamber, which was set to 40% RH and 25° C. and then the RH was decreased in 10% decrements to 10% RH followed by increasing the RH in 10% increments to 90% RH, while maintaining the temperature at 25° C. […] The sample then quickly transitioned from Form 1 at 80% RH to Form 2 at 90% RH. A variable humidity (VH) XRPD experiment was performed to examine how Form 3 exists under different RH conditions. […] The sample was stable as Form 2 for 8 hours at 80% RH. At 90% RH Form 2 existed for 2 hours before the sample deliquesced in the humidity chamber.

[5] = Kinetic solubility in biorelevant media; conditions: for Kinetic solubility, Mean conc: 37° C.
Protocol: A small-scale kinetic solubility study was carried out at a nominal concentration of 200-400 mg/ml to ensure solid material remained at the end of the experiment for XRPD analysis. Approximately 100 mg of sample—Form 1 (batch ref L17-0004-S-8002) or Form 3 (Example 5.4.1 (batch ref. 491PAL22; A-19-0132)) was weighed into a 1 ml vial and 250 μl of 0.1 M HCl was added to the vial for the 15 and 30 minute timepoints and 500 μl of a 1:1 mixture of 0.1 M HCl and FaSSIF was added to the vial for the 60 and 180 minute timepoints, The vial was agitated and maintained at 37° C.
The study was carried out in duplicate. Each sample was centrifuged to remove suspended solids. An aliquot of the supernatant was transferred to a second vial for further centrifugation and then transferred to an LC vial, diluted with an appropriate solvent and analysed by HPLC for parent compound. The residual solids were analysed by XRPD.

[6] = 0.1M HCl, 4 Hours, Form 3 = Example 5.4.1
[7] = FaSSIF, 4 Hours, atypical HPLC data and variable results
[8] = FaSSIF, 24 Hours, atypical HPLC data and variable results
[9] = 15 mins (simulated gastric), 0.1 M HCl, Form 3 = Example 5.4.1
[10] = 30 mins (simulated gastric), 0.1 M HCl
[11] = 60 mins (simulated intestinal), 1:1 0.1 M HCl and FaSSIF
[12] = 180 mins (simulated intestinal), 1:1 0.1 M HCl and FaSSIF

## C[S+]([O-])CCCCN=C=S.OCC1OC2OC3C(CO)OC(OC4C(CO)OC(OC5C(CO)OC(OC6C(CO)OC(OC7C(CO)OC(OC1C(O)C2O)C(O)C7O)C(O)C6O)C(O)C5O)C(O)C4O)C(O)C3O (centres unmarked) [Form 1]
[1]
  equilibrium solubility in words: high and comparable
[1]; [6]
  Equilibrium solubility, Mean Conc: 632
[1]; 0.1M HCl, 24 Hours
  Equilibrium solubility, Mean Conc: 2605
[1]; [7]
  Equilibrium solubility, Mean Conc: 271
[1]; [8]
  Equilibrium solubility, Mean Conc: 247
[2]; 2 weeks, 25° C./60% RH
  KF water content: 8.4 % w/w
[2]; 4 weeks, 25° C./60% RH
  KF water content: 6.5 % w/w
[2]; 8 weeks, 25° C./60% RH
  KF water content: 11.1 % w/w
[2]; Initial, 25° C./60% RH study
  KF water content: 8.6 % w/w
[3]
  Typical water content: 8-15 % w/w
[4]; Form 1 sample, RH reduced from 40% to 30% RH, 25° C.
  solid state form (VH-XRPD): intermediate phase
[4]; Form 1 sample, RH reduced to 20% RH, 25° C.
  solid state form (VH-XRPD): Form 3
[4]; Form 1 sample, after drying to 10% RH, RH increased to 70% RH
  solid state form (VH-XRPD): intermediate phase
[4]; Form 1 sample, after drying to 10% RH, RH increased to 80% RH
  solid state form (VH-XRPD): Form 1
[4]; Form 1 sample, after drying to 10% RH, RH increased to 90% RH
  solid state form (VH-XRPD): Form 2
[5]; 15 mins (simulated gastric)
  XRPD analysis of residual solids: Form 1
[5]; [9]
  Kinetic solubility, Mean conc: approximately 300 mg/ml
[5]; 15 mins (simulated gastric), 0.1 M HCl, Form 3 = Example 5.4.1, listed as 1
  Kinetic solubility, Mean conc: 319 mg/mL
[5]; 30 mins (simulated gastric)
  XRPD analysis of residual solids: Form 1
[5]; [10]
  Kinetic solubility, Mean conc: 318 mg/mL
[5]; 60 mins (simulated intestinal)
  XRPD analysis of residual solids: Form 1
[5]; [11]
  Kinetic solubility, Mean conc: approximately 180 mg/ml
[5]; 60 mins (simulated intestinal), 1:1 0.1 M HCl and FaSSIF, listed as 1
  Kinetic solubility, Mean conc: 191 mg/mL
[5]; 180 mins (simulated intestinal)
  XRPD analysis of residual solids: Form 1
[5]; [12]
  Kinetic solubility, Mean conc: approximately 180 mg/ml
[5]; 180 mins (simulated intestinal), 1:1 0.1 M HCl and FaSSIF, listed as 1
  Kinetic solubility, Mean conc: 180 mg/mL

## C[S+]([O-])CCCCN=C=S.OC[C@H]1O[C@@H]2O[C@H]3[C@H](O)[C@@H](O)[C@@H](O[C@H]4[C@H](O)[C@@H](O)[C@@H](O[C@H]5[C@H](O)[C@@H](O)[C@@H](O[C@H]6[C@H](O)[C@@H](O)[C@@H](O[C@H]7[C@H](O)[C@@H](O)[C@@H](O[C@H]1[C@H](O)[C@H]2O)O[C@@H]7CO)O[C@@H]6CO)O[C@@H]5CO)O[C@@H]4CO)O[C@@H]3CO [Form 3]
[1]
  equilibrium solubility in words: high and comparable
[1]; [6]
  Equilibrium solubility, Mean Conc: 733
[1]; 0.1M HCl, 24 Hours
  Equilibrium solubility, Mean Conc: 3057
[1]; [7]
  Equilibrium solubility, Mean Conc: 264
[1]; [8]
  Equilibrium solubility, Mean Conc: 221
[2]; up to 6 months
  water content on extended exposure to high humidity: does not increase significantly above about 5-6% w/w
[3]; exposure to ambient conditions (25° C., 40% RH), e.g. 3-7 days
  water content after equilibration at ambient conditions: 5-7 % w/w
[4]; 25° C., increasing RH
  RH at which the form starts to convert to a different form: 70%
[4]; Form 3 sample, RH decreased to 70% RH, persisted to 40% RH
  solid state form (VH-XRPD): Form 2 converted to Form 1
[4]; Form 3 sample, RH raised from 40% up to 60%, 25° C.
  solid state form (VH-XRPD): Form 3 is maintained
[4]; Form 3 sample, RH raised to 70%
  solid state form (VH-XRPD): intermediate phase
[4]; Form 3 sample, RH raised to 80%
  solid state form (VH-XRPD): Form 2
[4]; Form 3 sample, after dropping from 90% to 80% RH
  solid state form (VH-XRPD): Form 2 returned as a highly crystalline material
[4]; Form 3 sample, at 80% RH
  time sample was stable as Form 2 (VH-XRPD): 8 h
[4]; Form 3 sample, at 90% RH
  time Form 2 existed before the sample deliquesced (VH-XRPD): 2 h
[5]; 15 mins (simulated gastric)
  XRPD analysis of residual solids: Form 1
[5]; [9]
  Kinetic solubility, Mean conc: approximately 300 mg/ml
[5]; 15 mins (simulated gastric), 0.1 M HCl, Form 3 = Example 5.4.1, listed as 3
  Kinetic solubility, Mean conc: 298 mg/mL
[5]; 30 mins (simulated gastric)
  XRPD analysis of residual solids: Form 1
[5]; [10]
  Kinetic solubility, Mean conc: 298 mg/mL
[5]; [11]
  Kinetic solubility, Mean conc: approximately 180 mg/ml
[5]; 60 mins (simulated intestinal), 1:1 0.1 M HCl and FaSSIF, listed as 3
  Kinetic solubility, Mean conc: 171 mg/mL
[5]; [12]
  Kinetic solubility, Mean conc: approximately 180 mg/ml
[5]; 180 mins (simulated intestinal), 1:1 0.1 M HCl and FaSSIF, listed as 3
  Kinetic solubility, Mean conc: 157 mg/mL
